# In ChEMBL document CHEMBL1201862, “PubChem BioAssay data set” (2004):
#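 Compound exposure: 48 hours, 5 concentrations, 96-well plates. Here, GI50 denotes the concentration required for 50% inhibition of growth.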 Activity calls are given as the source filed them. Cut-off read from the data, not from the text of the source: active = GI50 up to about 1.1 µM and inactive = higher.
# Key:
# Experiment in all cases: NCI-60 cell line screen, 48 h
# OVCAR-3 = system: OVCAR-3
# UO-31 = system: UO-31
# NCI-H522 = system: NCI-H522
# A549 = system: A549
# XF498 = system: XF498
# OVCAR-8 = system: OVCAR-8
# SF-539 = system: SF-539
# K562 = system: K562
# RXF 393 = system: RXF 393
# KM-20L2 = system: KM-20L2
# SK-OV-3 = system: SK-OV-3
# SK-MEL-2 = system: SK-MEL-2
# M19-MEL = system: M19-MEL
# SNB-75 = system: SNB-75
# SK-MEL-5 = system: SK-MEL-5
# SN12C = system: SN12C
# HOP-92 = system: HOP-92
# M14 = system: M14
# LXFL 529 = system: LXFL 529
# COLO 205 = system: COLO 205
# U-251 = system: U-251
# Malme-3M = system: Malme-3M
# HCT-116 = system: HCT-116
# SK-MEL-28 = system: SK-MEL-28
# NCI-H23 = system: NCI-H23
# UACC-257 = system: UACC-257
# SW-620 = system: SW-620
# OVCAR-4 = system: OVCAR-4
# SNB-19 = system: SNB-19
# HL-60 = system: HL-60
# NCI-H460 = system: NCI-H460
# KM12 = system: KM12
# HT-29 = system: HT-29
# SF-295 = system: SF-295
# MOLT-4 = system: MOLT-4
# SF-268 = system: SF-268
# DMS-114 = system: DMS-114
# IGROV-1 = system: IGROV-1
# OVCAR-5 = system: OVCAR-5
# RPMI-8226 = system: RPMI-8226
# UACC-62 = system: UACC-62
# HOP-62 = system: HOP-62
# CCRF-CEM = system: CCRF-CEM
# EKVX = system: EKVX
# SR = system: SR
# TK-10 = system: TK-10
# DLD-1 = system: DLD-1
# HCT-15 = system: HCT-15
# LOX IMVI = system: LOX IMVI
# CAKI-1 = system: CAKI-1
# 786-0 = system: 786-0
# A498 = system: A498
# SNB-78 = system: SNB-78
# DMS-273 = system: DMS-273
# NCI-H226 = system: NCI-H226
# HCC 2998 = system: HCC 2998
# ACHN = system: ACHN
structure (smiles),measurement,setting,value
O=C(NN1C(=O)C(Cl)C1c1cccc([N+](=O)[O-])c1)c1ccccc1O (configuration not stated),GI50,OVCAR-3,> 100 µM (inactive)
same,GI50,UO-31,71.9 µM (inactive)
same,GI50,NCI-H522,28.3 µM (inactive)
same,GI50,A549,> 100 µM (inactive)
same,GI50,XF498,> 100 µM (inactive)
same,GI50,OVCAR-8,> 100 µM (inactive)
same,GI50,SF-539,> 100 µM (inactive)
same,GI50,K562,> 100 µM (inactive)
same,GI50,RXF 393,> 100 µM (inactive)
same,GI50,KM-20L2,> 100 µM (inactive)
same,GI50,SK-OV-3,> 100 µM (inactive)
same,GI50,SK-MEL-2,> 100 µM (inactive)
same,GI50,M19-MEL,> 100 µM (inactive)
same,GI50,SNB-75,> 100 µM (inactive)
same,GI50,SK-MEL-5,> 100 µM (inactive)
same,GI50,SN12C,> 100 µM (inactive)
same,GI50,HOP-92,> 100 µM (inactive)
same,GI50,M14,> 100 µM (inactive)
same,GI50,LXFL 529,> 100 µM (inactive)
same,GI50,COLO 205,> 100 µM (inactive)
same,GI50,U-251,> 100 µM (inactive)
same,GI50,Malme-3M,59.8 µM (inactive)
same,GI50,HCT-116,> 100 µM (inactive)
same,GI50,SK-MEL-28,> 100 µM (inactive)
same,GI50,NCI-H23,> 100 µM (inactive)
same,GI50,UACC-257,> 100 µM (inactive)
same,GI50,SW-620,> 100 µM (inactive)
same,GI50,OVCAR-4,> 100 µM (inactive)
same,GI50,SNB-19,68.5 µM (inactive)
same,GI50,HL-60,> 100 µM (inactive)
same,GI50,NCI-H460,> 100 µM (inactive)
same,GI50,KM12,> 100 µM (inactive)
same,GI50,HT-29,> 100 µM (inactive)
same,GI50,SF-295,> 100 µM (inactive)
same,GI50,MOLT-4,> 100 µM (inactive)
same,GI50,SF-268,> 100 µM (inactive)
same,GI50,DMS-114,> 100 µM (inactive)
same,GI50,IGROV-1,76.4 µM (inactive)
same,GI50,OVCAR-5,> 100 µM (inactive)
same,GI50,RPMI-8226,> 100 µM (inactive)
same,GI50,UACC-62,> 100 µM (inactive)
same,GI50,HOP-62,> 100 µM (inactive)
same,GI50,CCRF-CEM,35.6 µM (inactive)
same,GI50,EKVX,> 100 µM (inactive)
same,GI50,SR,> 100 µM (inactive)
same,GI50,TK-10,> 100 µM (inactive)
CC(=O)OC12c3ccccc3C1CCCCCC21OCCCO1 (configuration not stated),GI50,DLD-1,> 100 µM (inactive)
same,GI50,HCT-15,> 100 µM
same,GI50,OVCAR-3,> 100 µM (inactive)
same,GI50,UO-31,> 100 µM (inactive)
same,GI50,LOX IMVI,> 100 µM (inactive)
same,GI50,NCI-H522,> 100 µM (inactive)
same,GI50,CAKI-1,> 100 µM (inactive)
same,GI50,786-0,> 100 µM (inactive)
same,GI50,A549,> 100 µM (inactive)
same,GI50,A498,> 100 µM (inactive)
same,GI50,OVCAR-8,> 100 µM (inactive)
same,GI50,SF-539,> 100 µM (inactive)
same,GI50,K562,> 100 µM (inactive)
same,GI50,RXF 393,> 100 µM (inactive)
same,GI50,KM-20L2,> 100 µM (inactive)
same,GI50,SK-OV-3,> 100 µM (inactive)
same,GI50,SNB-78,> 100 µM (inactive)
same,GI50,SK-MEL-2,> 100 µM (inactive)
same,GI50,M19-MEL,> 100 µM (inactive)
same,GI50,SNB-75,> 100 µM (inactive)
same,GI50,SK-MEL-5,> 100 µM (inactive)
same,GI50,SN12C,> 100 µM (inactive)
same,GI50,M14,> 100 µM (inactive)
same,GI50,LXFL 529,> 100 µM (inactive)
same,GI50,COLO 205,> 100 µM (inactive)
same,GI50,U-251,> 100 µM (inactive)
same,GI50,HCT-116,> 100 µM (inactive)
same,GI50,DMS-273,> 100 µM (inactive)
same,GI50,SK-MEL-28,> 100 µM (inactive)
same,GI50,NCI-H23,> 100 µM (inactive)
same,GI50,OVCAR-4,> 100 µM (inactive)
same,GI50,SNB-19,> 100 µM (inactive)
same,GI50,HL-60,> 100 µM (inactive)
same,GI50,NCI-H460,> 100 µM (inactive)
same,GI50,KM12,> 100 µM (inactive)
same,GI50,HT-29,> 100 µM (inactive)
same,GI50,NCI-H226,> 100 µM (inactive)
same,GI50,SF-295,> 100 µM (inactive)
same,GI50,MOLT-4,> 100 µM (inactive)
same,GI50,SF-268,> 100 µM (inactive)
same,GI50,DMS-114,> 100 µM (inactive)
same,GI50,IGROV-1,> 100 µM (inactive)
same,GI50,OVCAR-5,> 100 µM (inactive)
same,GI50,RPMI-8226,> 100 µM (inactive)
same,GI50,UACC-62,> 100 µM (inactive)
same,GI50,HCC 2998,> 100 µM (inactive)
same,GI50,ACHN,> 100 µM (inactive)
same,GI50,HOP-62,> 100 µM (inactive)
same,GI50,CCRF-CEM,> 100 µM (inactive)
same,GI50,SR,> 100 µM (inactive)
same,GI50,TK-10,> 100 µM (inactive)
